# “Also recorded” adds a separate entry of the source.
# Assay: Evaluation of elution rates of analgesic from a 0.5 gm composition button in phosphate buffer, HPLC-UV
# Format: physicochemical
# Protocol: The surface area exposed to the buffer is about 0.785 sq. cm. One cc aliquots of the buffer solution are taken over a three day period, every 2 hours during business hours of day one, then several times on each of days two and three. […] The same procedure was followed for measurement of the elution of bupivacaine free base and hydrochloride.
Compound,effect of the added material on the elution rate of the anesthetic from the putty,period over which the free base of lidocaine is eluted (liquid component of the putty changed from triethyl citrate to Pluronic L-35 and tocopheryl acetate),"period over which the free base of lidocaine is released (putty-like composition comprising lidocaine free base, calcium stearate and liquid triethyl citrate)"
CCCCCCCCCCCC(=O)OCC [ethyl laurate],retard the elution,,
CCCCCCCCCCCCOC(C)=O [lauryl acetate],retard the elution,,
"CCN(CC)CC(=O)Nc1c(C)cccc1C [lidocaine free base, lidocaine, reference compound]",,eight,three
CC(=O)Oc1c(C)c(C)c2c(c1C)CCC(C)(CCC[C@H](C)CCC[C@H](C)CCCC(C)C)O2 (some centres unmarked) [tocopheryl acetate],slow down the elution rate; also recorded: reduces the elution rate; also recorded: retard the elution,,
